Reference: patent US20170252442A1, “PHOTOHEXER COMPOUNDS AND PHARMACEUTICAL COMPOSITION AND USE THEREOF” (RAINBOW PHARMATECH LLC, priority 2014, published 2017)

Columns and labels:
SGC7901 cells = assay: MTT assay, photodynamic therapy on SGC7901 cells; type: cell-based, human
Text: (§1) The cells in logarithmic growth phase were collected and inoculated on 24-well culture plates. When reaching 70%-80% confluence, cells were divided randomly into the following groups: control (the parallel control group without photosensitizer and irradiation), irradiation (irradiation treatment alone without photosensitizer); (photosensitizer treatment alone without irradiation), photodynamic treatment (treatment by photosensitizer in combination with irradiation). For the photosensitizer alone treatment group and photodynamic treatment group, an appropriate amount of Photohexer-1 (P-1) or Photohexer-2 (P-2) was respectively added away from light to give a final concentration of 0.8, 1.6, 3.2, 6.4 μM. Each group set 3 replicates. Cells were incubated with the active agent, different treatments were carried out according to the grouping. […] After treatment and digestion of each group of cells, it was inoculated into a 96-well plate at 100 μL/well, and four wells were set for each treatment. MTT assay was performed after 24 h from inoculation: 20 μL MTT solution was added to each well under the condition away from light, and the culture was continued for 4 hours. 150 μL DMSO was added to each well after discarding the supernatant. After 15 min of dissolution, the absorbance value (OD value) was measured using a microplate reader and the relative survival rate of cells was calculated according to the following formula: […]

SW-620 cells = assay: MTT assay, photodynamic therapy on SW-620 cells; type: cell-based, human
Text: as §1

MDA-MB-231 cells = assay: MTT assay, photodynamic therapy on MDA-MB-231 cells; type: cell-based, human
Text: as §1

MCF-7 cells = assay: MTT assay, photodynamic therapy on MCF-7 cells; type: cell-based, human
Text: as §1

MCF-7/ADR cells = assay: MTT assay, photodynamic therapy on MCF-7/ADR cells; type: cell-based, human
Text: as §1

CT26 cells = assay: MTT assay, photodynamic therapy on CT26 cells; type: cell-based, murine
Text: as §1

4T1 transplanted tumors = assay: Tumor-inhibition effect of P1 and P2-PDT on 4T1 xenografted mice; type: in vivo, Balb/c mice; details: for tumor inhibition rate: day 22 after treatment
Experimental: Experimental groups: blank control (2 mice), P-1 alone treatment (4 mg/kg, 8 mice), P-2 alone treatment (2 mg/kg, 8 mice), P-1 treatment (2 mg/kg, 4 mg/kg, 8 mice/group) combined with light irradiations, P-2 treatment (1 mg/kg, 2 mg/kg, 4 mg/kg, 8 mice/group) combined with light irradiations, 66 Balb/c mice in total.

[1] = Solubility determination in water; type: physicochemical; details: each ml of water; room temperature; read-out: solubility in water (amount dissolved by each ml of water)
Experimental: The solubility of Photohexer-1 and Photohexer-2 in water was determined by conventional methods in the art.

[2] = Storage stability determination; type: physicochemical; details: 3 months of storage in dark at 2-4
Experimental: The storage stability of Photohexer-1 and Photohexer-2 was determined by conventional methods in the art.

[3] = 0.8 μM alone treatment, without irradiation
[4] = 0.8 μM combined with 2.6 J/cm^2 light irradiation
[5] = 0.8 μM combined with 5.2 J/cm^2 light irradiation
[6] = 0.8 μM combined with 10.4 J/cm^2 light irradiation
[7] = 1.6 μM alone treatment, without irradiation
[8] = 1.6 μM combined with 2.6 J/cm^2 light irradiation
[9] = 1.6 μM combined with 5.2 J/cm^2 light irradiation
[10] = 1.6 μM combined with 10.4 J/cm^2 light irradiation
[11] = 3.2 μM alone treatment, without irradiation
[12] = 3.2 μM combined with 2.6 J/cm^2 light irradiation
[13] = 3.2 μM combined with 5.2 J/cm^2 light irradiation
[14] = 3.2 μM combined with 10.4 J/cm^2 light irradiation
[15] = 6.4 μM alone treatment, without irradiation
[16] = 6.4 μM combined with 2.6 J/cm^2 light irradiation
[17] = 6.4 μM combined with 5.2 J/cm^2 light irradiation
[18] = 6.4 μM combined with 10.4 J/cm^2 light irradiation

C=Cc1c(C)c2cc3nc(cc4[nH]c(cc5nc(cc1[nH]2)C(C)=C5C(C)OCCCCCC)c(C)c4CCC(=O)[O-])C(CCC(=O)[O-])=C3C.[Na+].[Na+] (centres unmarked) [Photohexer P-2, 4-(1-hexyloxyethyl)-6,7-bis(propionatesodium)-1,3,5,8-tetramethyl-2-vinylporphyrin]
photodynamic activity compared between P-1 and P-2 (SGC7901 cells): better than P-1 | Cell survival rate (SGC7901 cells; [3]): 100.80 ± 0.91% | Cell survival rate (SGC7901 cells; [4]): 83.27 ± 0.82% | Cell survival rate (SGC7901 cells; [5]): 76.47 ± 1.65% | Cell survival rate (SGC7901 cells; [6]): 66.13 ± 0.60% | Cell survival rate (SGC7901 cells; [7]): 97.25 ± 1.34% | Cell survival rate (SGC7901 cells; [8]): 70.77 ± 7.19% | Cell survival rate (SGC7901 cells; [9]): 60.00 ± 9.82% | Cell survival rate (SGC7901 cells; [10]): 49.32 ± 12.57% | Cell survival rate (SGC7901 cells; [11]): 82.72 ± 0.54% | Cell survival rate (SGC7901 cells; [12]): 52.91 ± 1.96% | Cell survival rate (SGC7901 cells; [13]): 41.72 ± 0.35% | Cell survival rate (SGC7901 cells; [14]): 34.58 ± 0.66% | killing effect of photodynamic therapy (SGC7901 cells; drug-dose and light-intensity dependent): obvious killing effect | Cell survival rate (SW-620 cells; [3]): 101.79 ± 4.27% | Cell survival rate (SW-620 cells; [4]): 97.58 ± 3.86% | Cell survival rate (SW-620 cells; [5]): 96.11 ± 4.06% | Cell survival rate (SW-620 cells; [6]): 92.99 ± 3.86% | Cell survival rate (SW-620 cells; [7]): 96.58 ± 3.66% | Cell survival rate (SW-620 cells; [8]): 94.77 ± 2.99% | Cell survival rate (SW-620 cells; [9]): 90.19 ± 3.18% | Cell survival rate (SW-620 cells; [10]): 84.95 ± 3.02% | Cell survival rate (SW-620 cells; [11]): 93.16 ± 2.71% | Cell survival rate (SW-620 cells; [12]): 89.07 ± 2.34% | Cell survival rate (SW-620 cells; [13]): 82.00 ± 2.62% | Cell survival rate (SW-620 cells; [14]): 68.54 ± 2.77% | Cell survival rate (SW-620 cells; [15]): 85.21 ± 1.03% | Cell survival rate (SW-620 cells; [16]): 66.83 ± 1.12% | Cell survival rate (SW-620 cells; [17]): 58.46 ± 1.23% | Cell survival rate (SW-620 cells; [18]): 47.12 ± 1.04% | sensitivity compared between P-1 and P-2 (MDA-MB-231 cells): more sensitive than P-1 | Cell survival rate (MDA-MB-231 cells; [3]): 100.17 ± 4.03% | Cell survival rate (MDA-MB-231 cells; [4]): 87.82 ± 4.09% | Cell survival rate (MDA-MB-231 cells; [5]): 71.8 ± 4.16% | Cell survival rate (MDA-MB-231 cells; [6]): 52.23 ± 4.16% | Cell survival rate (MDA-MB-231 cells; [7]): 97.69 ± 3.63% | Cell survival rate (MDA-MB-231 cells; [8]): 73.80 ± 3.22% | Cell survival rate (MDA-MB-231 cells; [9]): 49.35 ± 3.46% | Cell survival rate (MDA-MB-231 cells; [10]): 45.69 ± 3.16% | Cell survival rate (MDA-MB-231 cells; [11]): 91.44 ± 2.57% | Cell survival rate (MDA-MB-231 cells; [12]): 59.92 ± 2.94% | Cell survival rate (MDA-MB-231 cells; [13]): 46.57 ± 2.43% | Cell survival rate (MDA-MB-231 cells; [14]): 40.31 ± 2.28% | Cell survival rate (MDA-MB-231 cells; [15]): 81.55 ± 1.21% | Cell survival rate (MDA-MB-231 cells; [16]): 49.18 ± 1.33% | Cell survival rate (MDA-MB-231 cells; [17]): 40.03 ± 1.12% | Cell survival rate (MDA-MB-231 cells; [18]): 31.15 ± 0.96% | Cell survival rate (MCF-7 cells; [3]): 98.46 ± 4.62% | Cell survival rate (MCF-7 cells; [4]): 89.08 ± 3.99% | Cell survival rate (MCF-7 cells; [5]): 76.83 ± 4.26% | Cell survival rate (MCF-7 cells; [6]): 72.40 ± 4.14% | Cell survival rate (MCF-7 cells; [7]): 84.93 ± 3.16% | Cell survival rate (MCF-7 cells; [8]): 65.11 ± 2.73% | Cell survival rate (MCF-7 cells; [9]): 48.15 ± 3.12% | Cell survival rate (MCF-7 cells; [10]): 41.81 ± 3.77% | Cell survival rate (MCF-7 cells; [11]): 82.94 ± 2.28% | Cell survival rate (MCF-7 cells; [12]): 51.79 ± 2.10% | Cell survival rate (MCF-7 cells; [13]): 44.80 ± 2.22% | Cell survival rate (MCF-7 cells; [14]): 34.81 ± 2.43% | Cell survival rate (MCF-7 cells; [15]): 80.23 ± 1.03% | Cell survival rate (MCF-7 cells; [16]): 40.31 ± 1.02% | Cell survival rate (MCF-7 cells; [17]): 35.46 ± 1.02% | Cell survival rate (MCF-7 cells; [18]): 26.14 ± 1.07% | cell toxicity (MCF-7/ADR cells): significant cell toxicity | Cell survival rate (MCF-7/ADR cells; [3]): 96.93 ± 4.47% | Cell survival rate (MCF-7/ADR cells; [4]): 94.88 ± 3.94% | Cell survival rate (MCF-7/ADR cells; [5]): 92.76 ± 4.32% | Cell survival rate (MCF-7/ADR cells; [6]): 90.99 ± 4.36% | Cell survival rate (MCF-7/ADR cells; [7]): 92.26 ± 3.26% | Cell survival rate (MCF-7/ADR cells; [8]): 74.79 ± 2.77% | Cell survival rate (MCF-7/ADR cells; [9]): 67.82 ± 3.12% | Cell survival rate (MCF-7/ADR cells; [10]): 54.66 ± 3.43% | Cell survival rate (MCF-7/ADR cells; [11]): 53.84 ± 2.58% | Cell survival rate (MCF-7/ADR cells; [12]): 50.37 ± 2.13% | Cell survival rate (MCF-7/ADR cells; [13]): 48.99 ± 2.16% | Cell survival rate (MCF-7/ADR cells; [14]): 46.57 ± 2.76% | Cell survival rate (MCF-7/ADR cells; [15]): 48.88 ± 1.13% | Cell survival rate (MCF-7/ADR cells; [16]): 43.68 ± 1.06% | Cell survival rate (MCF-7/ADR cells; [17]): 41.49 ± 0.96% | Cell survival rate (MCF-7/ADR cells; [18]): 34.75 ± 1.22% | photoactivity compared between P-1 and P-2 (CT26 cells): stronger than that of P-1 | Cell survival rate (CT26 cells; [3]): 94.08 ± 4.27% | Cell survival rate (CT26 cells; [4]): 83.97 ± 3.96% | Cell survival rate (CT26 cells; [5]): 82.55 ± 4.77% | Cell survival rate (CT26 cells; [6]): 70.66 ± 4.66% | Cell survival rate (CT26 cells; [7]): 92.09 ± 3.56% | Cell survival rate (CT26 cells; [8]): 61.29 ± 2.78% | Cell survival rate (CT26 cells; [9]): 49.85 ± 3.55% | Cell survival rate (CT26 cells; [10]): 38.89 ± 3.86% | Cell survival rate (CT26 cells; [11]): 76.30 ± 2.28% | Cell survival rate (CT26 cells; [12]): 44.29 ± 2.41% | Cell survival rate (CT26 cells; [13]): 39.69 ± 2.27% | Cell survival rate (CT26 cells; [14]): 26.01 ± 2.38% | Cell survival rate (CT26 cells; [15]): 50.49 ± 1.03% | Cell survival rate (CT26 cells; [16]): 34.11 ± 1.02% | Cell survival rate (CT26 cells; [17]): 28.61 ± 1.09% | Cell survival rate (CT26 cells; [18]): 18.82 ± 1.01% | toxic effects of photosensitizer alone (4T1 transplanted tumors; 2 mg/kg alone, without irradiation, 4T1 tumor-bearing mice): did not show significant toxic effects | tumor inhibition rate (4T1 transplanted tumors; 2 mg/kg combined with light irradiation (50 J/cm^2), 4T1 tumor-bearing mice): 23.35% | tumor inhibition rate (4T1 transplanted tumors; 4 mg/kg combined with light irradiation (50 J/cm^2), 4T1 tumor-bearing mice): 44.68% | photosensitizer activity on growth of 4T1 transplanted tumors (4T1 transplanted tumors; combined with 50 J/cm^2 irradiation): obvious dose-dependent activity | volume of tumor relative to control group (4T1 transplanted tumors; combined with 50 J/cm^2 irradiation, 8th to 22nd days after treatment): about half the size of tumors of control group | solubility [1]: ~10000 µg/mL | storage stability (content change by HPLC test) [2]: no content change
